{
  "source": "ChEMBL document CHEMBL4014287",
  "about": "“Jesridonin in combination with paclitaxel demonstrates synergistic anti-tumor activity in human esophageal carcinoma cells” (Bioorg Med Chem Lett, 2017)",
  "key": {"[1]": {"system": "ECa-109 cell line", "experiment": "Induction of apoptosis in human EC109 cells assessed as late apoptotic cells at 15 uM after 24 hrs by Annexin V-FITC/propidium iodide staining based flow cytometry (reference value: 1%)", "format": "functional"}, "[2]": {"system": "ECa-109 cell line", "experiment": "Antitumor activity against human EC109 cells xenografted in nude mouse assessed as reduction in tumor volume at 10 mg/kg in presence of 5 mg/kg paclitaxel measured after 21 days", "format": "functional, organism-based"}, "[3]": {"system": "ECa-109 cell line", "experiment": "Induction of apoptosis in human EC109 cells assessed as increase in Bax level at 15 uM in presence of 5 nM paclitaxel by Western blot method", "format": "functional, cell-based"}, "[4]": {"system": "ECa-109 cell line", "experiment": "Cytotoxicity against human EC109 cells assessed as combination index at 30 uM in presence of 10 nM paclitaxel", "format": "functional"}, "[5]": {"system": "ECa-109 cell line", "experiment": "Cytotoxicity against human EC109 cells assessed as combination index at 15 uM in presence of 2.5 nM paclitaxel", "format": "functional"}, "[6]": {"system": "ECa-109 cell line", "experiment": "Antitumor activity against human EC109 cells xenografted in nude mouse assessed as induction of necrosis at 10 mg/kg measured after 21 days by H and E staining based assay", "format": "functional, organism-based"}, "[7]": {"system": "Mus musculus", "experiment": "Toxicity in nude mouse xenografted with human EC109 cells assessed as body weight loss at 10 mg/kg in presence of paclitaxel measured after 21 days", "format": "organism-based", "conditions": "in vivo, 504 h"}, "[8]": {"system": "ECa-109 cell line", "experiment": "Induction of apoptosis in human EC109 cells assessed as early apoptotic cells at 15 uM after 24 hrs by Annexin V-FITC/propidium iodide staining based flow cytometry (reference value: 1.3%)", "format": "functional"}, "[9]": {"system": "ECa-109 cell line", "experiment": "Cytotoxicity against human EC109 cells assessed as combination index at 15 uM in presence of 10 nM paclitaxel", "format": "functional"}, "[10]": {"system": "Mus musculus", "experiment": "Hepatotoxicity in nude mouse xenografted with human EC109 cells assessed as change in serum albumin level at 10 mg/kg in presence of paclitaxel measured after 21 days", "format": "toxicity, organism-based", "conditions": "in vivo, 504 h"}, "[11]": {"system": "ECa-109 cell line", "experiment": "Induction of apoptosis in human EC109 cells assessed as decrease in Bcl-2 level at 15 uM in presence of 5 nM paclitaxel by Western blot method", "format": "functional, cell-based"}, "[12]": {"system": "ECa-109 cell line", "experiment": "Antitumor activity against human EC109 cells xenografted in nude mouse assessed as induction of necrosis at 10 mg/kg in presence of paclitaxel measured after 21 days by H and E staining based assay", "format": "functional, organism-based"}, "[13]": {"system": "Mus musculus", "experiment": "Cardiotoxicity in nude mouse xenografted with human EC109 cells at 10 mg/kg in presence of paclitaxel measured after 21 days by histopathological analysis", "format": "toxicity, organism-based", "conditions": "in vivo, 504 h"}, "[14]": {"system": "Mus musculus", "experiment": "Hepatotoxicity in nude mouse xenografted with human EC109 cells at 10 mg/kg in presence of paclitaxel measured after 21 days by histopathological analysis", "format": "toxicity, organism-based", "conditions": "in vivo, 504 h"}, "[15]": {"system": "ECa-109 cell line", "experiment": "Cytotoxicity against human EC109 cells assessed as combination index at 30 uM in presence of 2.5 nM paclitaxel", "format": "functional"}, "[16]": {"system": "Mus musculus", "experiment": "Toxicity in nude mouse xenografted with human EC109 cells assessed as effect on lungs at 10 mg/kg in presence of paclitaxel measured after 21 days by histopathological analysis", "format": "organism-based", "conditions": "in vivo, 504 h"}, "[17]": {"system": "Mus musculus", "experiment": "Toxicity in nude mouse xenografted with human EC109 cells assessed as skin ulceration at 10 mg/kg in presence of paclitaxel measured after 21 days", "format": "organism-based", "conditions": "in vivo, 504 h"}, "[18]": {"system": "ECa-109 cell line", "experiment": "Antitumor activity against human EC109 cells xenografted in nude mouse assessed as tumor growth inhibition at 10 mg/kg in presence of 5 mg/kg paclitaxel measured after 21 days relative to control", "format": "functional"}, "[19]": {"system": "ECa-109 cell line", "experiment": "Induction of apoptosis in human EC109 cells assessed as necrotic cells at 15 uM after 24 hrs by Annexin V-FITC/propidium iodide staining based flow cytometry (reference value: 1.6 %)", "format": "functional"}, "[20]": {"system": "ECa-109 cell line", "experiment": "Cytotoxicity against human EC109 cells assessed as combination index at 10 uM in presence of 10 nM paclitaxel", "format": "functional"}, "[21]": {"system": "Mus musculus", "experiment": "Toxicity in nude mouse xenografted with human EC109 cells assessed as effect on spleen at 10 mg/kg in presence of paclitaxel measured after 21 days by histopathological analysis", "format": "organism-based", "conditions": "in vivo, 504 h"}, "[22]": {"system": "ECa-109 cell line", "experiment": "Induction of apoptosis in human EC109 cells assessed as nuclear condensation at 15 uM after 24 hrs by Hochest 33258 staining based fluorescent microscopic analysis", "format": "functional, cell-based"}, "[23]": {"system": "Mus musculus", "experiment": "Hepatotoxicity in nude mouse xenografted with human EC109 cells assessed as change in serum ALP level at 10 mg/kg in presence of paclitaxel measured after 21 days", "format": "toxicity, organism-based", "conditions": "in vivo, 504 h"}, "[24]": {"system": "ECa-109 cell line", "experiment": "Induction of apoptosis in human EC109 cells assessed as increase in Bak level at 15 uM in presence of 5 nM paclitaxel by Western blot method", "format": "functional, cell-based"}, "[25]": {"system": "ECa-109 cell line", "experiment": "Cytotoxicity against human EC109 cells assessed as combination index at 30 uM in presence of 5 nM paclitaxel", "format": "functional"}, "[26]": {"system": "ECa-109 cell line", "experiment": "Induction of apoptosis in human EC109 cells assessed as viable cells at 15 uM after 24 hrs in presence of paclitaxel by Annexin V-FITC/propidium iodide staining based flow cytometry (reference value: 96.1%)", "format": "functional", "conditions": "ECa-109, 24 h, read-out: Activity"}, "[27]": {"system": "ECa-109 cell line", "experiment": "Induction of apoptosis in human EC109 cells assessed as nuclear condensation at 15 uM in presence of 5 nM paclitaxel after 24 hrs by Hochest 33258 staining based fluorescent microscopic analysis", "format": "functional, cell-based"}, "[28]": {"system": "ECa-109 cell line", "experiment": "Induction of apoptosis in human EC109 cells assessed as late apoptotic cells at 15 uM after 24 hrs in presence of paclitaxel by Annexin V-FITC/propidium iodide staining based flow cytometry (reference value: 1%)", "format": "functional"}, "[29]": {"system": "ECa-109 cell line", "experiment": "Antitumor activity against human EC109 cells xenografted in nude mouse assessed as decrease in tumor weight at 10 mg/kg in presence of 5 mg/kg paclitaxel measured after 21 days", "format": "functional, organism-based"}, "[30]": {"system": "ECa-109 cell line", "experiment": "Antitumor activity against human EC109 cells xenografted in nude mouse assessed as reduction in tumor size at 10 mg/kg in presence of 5 mg/kg paclitaxel measured after 21 days", "format": "functional, organism-based"}, "[31]": {"system": "Mus musculus", "experiment": "Hepatotoxicity in nude mouse xenografted with human EC109 cells assessed as change in serum total protein level at 10 mg/kg in presence of paclitaxel measured after 21 days", "format": "toxicity, organism-based", "conditions": "in vivo, 504 h"}, "[32]": {"system": "Mus musculus", "experiment": "Toxicity in nude mouse xenografted with human EC109 cells assessed as pathological changes at 10 mg/kg measured after 21 days", "format": "organism-based", "conditions": "in vivo, 504 h"}, "[33]": {"system": "Mus musculus", "experiment": "Toxicity in nude mouse xenografted with human EC109 cells assessed as body weight loss at 10 mg/kg measured after 21 days", "format": "organism-based", "conditions": "in vivo, 504 h"}, "[34]": {"system": "Mus musculus", "experiment": "Nephrotoxicity in nude mouse xenografted with human EC109 cells at 10 mg/kg in presence of paclitaxel measured after 21 days by histopathological analysis", "format": "toxicity, organism-based", "conditions": "in vivo, 504 h"}, "[35]": {"system": "ECa-109 cell line", "experiment": "Induction of apoptosis in human EC109 cells assessed as early apoptotic cells at 15 uM after 24 hrs in presence of paclitaxel by Annexin V-FITC/propidium iodide staining based flow cytometry (reference value: 1.3%)", "format": "functional"}, "[36]": {"system": "ECa-109 cell line", "experiment": "Induction of apoptosis in human EC109 cells assessed as decrease in pro-caspase 9 expression at 15 uM in presence of 5 nM paclitaxel by Western blot method", "format": "functional, cell-based"}, "[37]": {"system": "ECa-109 cell line", "experiment": "Induction of apoptosis in human EC109 cells assessed as nuclear shrinkage at 15 uM in presence of 5 nM paclitaxel after 24 hrs by Hochest 33258 staining based fluorescent microscopic analysis", "format": "functional, cell-based"}, "[38]": {"system": "Mus musculus", "experiment": "Hepatotoxicity in nude mouse xenografted with human EC109 cells assessed as change in serum GGT level at 10 mg/kg in presence of paclitaxel measured after 21 days", "format": "toxicity, organism-based", "conditions": "in vivo, 504 h"}},
  "note": "The source made the active and inactive calls. The calls are words filed in the database; no cut-off is given here.",
  "data": [
    {"smiles": "C=C1C(=O)[C@@]23[C@@H]4OC(c5ccc(Cl)cc5)O[C@@]25OC[C@@]2([C@H]([C@@H]5O)C(C)(C)CC[C@@H]2O)[C@@H]3CC[C@@H]14", "note": "(stereo partly drawn)", "values": [
      {"measurement": "Activity", "setting": "[1]", "result": 5.3, "unit": "%"},
      {"measurement": "Activity", "setting": "[2]", "result": "Active"},
      {"measurement": "Activity", "setting": "[3]", "result": "Active"},
      {"measurement": "CI", "setting": "[4]", "result": 1.12},
      {"measurement": "CI", "setting": "[5]", "result": 0.6},
      {"measurement": "Activity", "setting": "[6]", "result": "Active"},
      {"measurement": "Activity", "setting": "[7]", "result": "Non-Toxic"},
      {"measurement": "Activity", "setting": "[8]", "result": 20.2, "unit": "%"},
      {"measurement": "CI", "setting": "[9]", "result": 0.68},
      {"measurement": "Activity", "setting": "[10]", "result": "Non-Toxic"},
      {"measurement": "Activity", "setting": "[11]", "result": "Active"},
      {"measurement": "Activity", "setting": "[12]", "result": "Active"},
      {"measurement": "Activity", "setting": "[13]", "result": "Non-Toxic"},
      {"measurement": "Activity", "setting": "[14]", "result": "Non-Toxic"},
      {"measurement": "CI", "setting": "[15]", "result": 1.15},
      {"measurement": "Activity", "setting": "[16]", "result": "Non-Toxic"},
      {"measurement": "Activity", "setting": "[17]", "result": "Non-Toxic"},
      {"measurement": "TGI", "setting": "[18]", "result": 77.21, "unit": "%"},
      {"measurement": "Activity", "setting": "[19]", "result": 1.3, "unit": "%"},
      {"measurement": "CI", "setting": "[20]", "result": 0.43},
      {"measurement": "Activity", "setting": "[21]", "result": "Non-Toxic"},
      {"measurement": "Activity", "setting": "[22]", "result": "Active"},
      {"measurement": "Activity", "setting": "[23]", "result": "Non-Toxic"},
      {"measurement": "Activity", "setting": "[24]", "result": "Active"},
      {"measurement": "CI", "setting": "[25]", "result": 0.93},
      {"measurement": "viability at 15 µM", "setting": "[26]", "result": 52.7, "unit": "%"},
      {"measurement": "Activity", "setting": "[27]", "result": "Active"},
      {"measurement": "Activity", "setting": "[28]", "result": 9.7, "unit": "%"},
      {"measurement": "Activity", "setting": "[29]", "result": "Active"},
      {"measurement": "Activity", "setting": "[30]", "result": "Active"},
      {"measurement": "Activity", "setting": "[31]", "result": "Non-Toxic"},
      {"measurement": "Activity", "setting": "[32]", "result": "Non-Toxic"},
      {"measurement": "Activity", "setting": "[33]", "result": "Non-Toxic"},
      {"measurement": "Activity", "setting": "[34]", "result": "Non-Toxic"},
      {"measurement": "Activity", "setting": "[35]", "result": 36.1, "unit": "%"},
      {"measurement": "Activity", "setting": "[36]", "result": "Active"},
      {"measurement": "Activity", "setting": "[37]", "result": "Active"},
      {"measurement": "Activity", "setting": "[38]", "result": "Non-Toxic"}
    ]}
  ]
}
